Test results: patent US20220362279A1, “USE OF OLIGONUCLEOTIDES FOR THE TREATMENT AND PREVENTION OF PAIN” (CONSEJO NACIONAL DE INVESTIGACIONES CIENTÍFICAS Y TÉCNICAS, priority 2018, published 2022)
“Also recorded” adds a separate entry of the source. Strand notation (5' to 3'): a small letter for the sugar, then the base; units joined by * are phosphorothioate-linked, units joined directly phosphodiester-linked; [ ] holds rarer units or linkages, { } end groups; capitals alone tell only the bases. d = 2'-deoxy (DNA)

How the values were obtained:
Type in all cases: in vivo, rat
naïve rats = experiment: Hind paw mechanical withdrawal threshold in naïve rats; settings: 20 mg/kg daily x5; observed up to 22 days; vs saline-treated naïve rats
Description: (§1) Naïve (uninjured and untreated; n=16), CFA injured untreated (n=10), and vehicle-treated CFA (n=9) or SNI rats (n=10) were used as controls. Eight naïve rats remained untreated, four were vehicle-treated, and four received a daily dose of 20 mg/kg IMT504 for five consecutive days. Untreated CFA rats received an intradermal hind paw injection of CFA and no further treatment. Vehicle-treated CFA rats received five daily subcutaneous injections of saline (200 μl), starting seven days after injury. Vehicle-treated SNI rats received one single dose of saline (200 ul), starting seven days after injury.
(§2) For mechanical allodynia assessment, a set of von Frey filaments (Stoelting, Ill., USA) and the modified up-down method of Dixon were used, as described by Chaplan et al. (Chaplan S R, et, al., (1994) J. Neurosci Methods 53: 55-632) to establish the 50% withdrawal threshold. A withdrawal threshold of 6 g or less was considered an allodynic response.

[1] = tested on: rats with post-incisional pain; experiment: Mechanical allodynia in rats with post-incisional pain (plantar incision); settings: 6 mg/kg s.c. 48 h and 24 h before incision
Text: In twenty-four rats anesthetized with Isoflurane (5% induction, 2.5% maintenance, 0.8 L/min O2 flow rate; Scott-Cassara, Argentina), the right hind paw plantar skin was cleaned and disinfected. This was followed by a 1-cm longitudinal incision distal to heel and extending towards the toes, as previously described (Xu J, et al., 2011, 24(5): 508-514). The incision involved both plantar skin and fascia. This was followed by identification and longitudinal incision of plantar […] muscle, leaving its insertions intact. After achieving homeostasica, skin was sutured using a 5-0 nylon suture, protected with an antibacterial cream and the animal was returned to its retention cage, under observation, until full recovery from anesthesia.
Rats were subcutaneously administered 6 mg/kg of IMT504, 48 and 24 h before implementing the post-incisional pain model. This was followed by pain-like behavior testing for up to 21 days after injury.
For mechanical allodynia assessment, a set of von Frey filaments (Stoelting, Ill., USA) and the modified up-down method of Dixon were used, to establish the 50% withdrawal threshold. A withdrawal threshold of 0.21 oz or less was considered an allodynic response.

[2] = tested on: rats with hind paw inflammation (CFA rats); experiment: Mechanical allodynia (von Frey, 50% withdrawal threshold) in rats with CFA-induced hind paw inflammation
Description: (§3) In fifty-two rats anesthetized with Isoflurane (5% induction, 2.5% maintenance, 0.8 L/min O2 flow rate; Piramal Healthcare, UK), the right hind paw was injected intra-dermally with 100 μl of CFA (1:1, dissolved in normal saline; Sigma-Aldrich, Mo., USA), using a 1 ml syringe with a 25G needle attached. The animals (from now on, called CFA rats) were left to recover from anesthesia in a warm and quiet environment before relocating them in their corresponding cages.
In one set of experiments, called “preventive treatment”, four rats received a daily dose of 20 mg/kg IMT504 for five consecutive days and four weeks later one dose of 6 mg/kg (group a); a second group of four rats received one dose of 6mg/kg of IMT504 (group b) (FIG. 1A). Three days after the single injection of 6 mg/kg IMT504, all eight rats received intra-plantar CFA, after which they were tested for mechanical and cold allodynia during 21 days. At day 28, group b received an additional administration of IMT504 at a dose of 3 mg/kg and was evaluated until day 35.
In a second set of experiments, groups of rats were allocated to early or late treatment protocols (ET and LT, respectively), using a daily dose of 20 mg/kg IMT504 for five consecutive days (FIG. 2A). The ET protocol (n=5) was performed immediately after the intradermal injection of CFA in the hind paw; the LT protocol (n=5) was initiated seven days after the induction of hind paw inflammation (FIG. 2A). In all cases, animals where tested for pain-like behavior during four weeks after the induction of hind paw inflammation (days 1, 3, 7; weeks 2, 3 and 4).
In a third set of experiments, different concentrations and dosages of IMT504 were administered subcutaneously using the LT protocol (FIG. 3A). Rats were separated in three groups (n=5 per group) and treated as follows: i) a daily dose of 0.2 mg/kg of IMT504 for five consecutive days, ii) a daily dose of 2 mg/kg of IMT504 for five consecutive days, and iii) a daily dose of 2 mg/kg of IMT504 for three consecutive days. All these groups were tested for pain-like behavior up to seven weeks after induction of the hind paw inflammation.
as §1, §2
as §3, with “seventeen” for “fifty-two”, “Scott-Cassara, Argentina),” for “Piramal Healthcare, UK),”, “MO,” for “Mo.,”, “needle.” for “needle attached.”, “(called” for “(from now on, called”, “relocating” for “relocating them”
Eight rats received a dose of 6 mg/kg IMT504 (FIGS. 2 and 3). Three days after the single injection of 6 mg/kg IMT504, all rats received intra-plantar complete Freund's Adjuvant (CFA), after which they were tested for mechanical and cold allodynia during 21-35 days. On day 28 (FIG. 1) or 28 (FIG. 2), rats receiving preventive IMT504 were administered additional IMT504 at a dose of 3 mg/kg (FIG. 1) or 2 mg/kg (FIG. 2), and assessed until days 21-35. […]

[3] = 6 mg/kg 3 days before CFA (FIG. 6, FIG. 8)

IMT504: synthetic phosphorothioate oligodeoxynucleotide with sequence 5′-TCATCATTTTGTCATTTTGTCATT-3′ (SEQ ID No 1) (DNA dT*dC*dA*dT*dC*dA*dT*dT*dT*dT*dG*dT*dC*dA*dT*dT*dT*dT*dG*dT*dC*dA*dT*dT)
hind paw mechanical withdrawal threshold in naïve rats (naïve rats): did not shown changes; also recorded: did not show any evident changes | day after injury from which basal withdrawal thresholds are shown [1]: 3 days | mechanical withdrawal thresholds and responses to cold stimuli in contralateral hind paws ([1]; data not shown): remained normal | reduction of mechanical withdrawal thresholds at 6 h and 1 day after injury ([1]; vs vehicle): lower reduction of withdrawal thresholds | period after induction of inflammation during which IMT504 prevents mechanical allodynia [2, 3]: 7 days | time of reaching allodynic levels comparable to vehicle-treated rats [2, 3]: 14 days after injury | day by which mechanical withdrawal thresholds are fully comparable to injured untreated or vehicle-treated rats ([2]; 6 mg/kg 3 days before CFA, both groups (FIG. 10A, 11A)): 21 days | lack of mechanical allodynia until ([2]; 6 mg/kg 3 days before CFA, group with booster on day 21 (FIG. 11A)): 7 days after injury | lack of mechanical allodynia until ([2]; 6 mg/kg 3 days before CFA, group with booster on day 28 (FIG. 10A)): 3 days after injury | effect of a booster dose of 2 mg/kg IMT504 21 days after injury on mechanical allodynia ([2]; 6 mg/kg 3 days before CFA, booster 2 mg/kg day 21 (FIG. 11A)): completely restored the anti-allodynic effect | effect of an additional dose of 3 mg/kg IMT504 28 days after injury on mechanical allodynia ([2]; 6 mg/kg 3 days before CFA, booster 3 mg/kg day 28, observed one day after re-administration): quickly reverted; also recorded: complete reduction in mechanical and cold allodynia; also recorded: full recovery of basal withdrawal thresholds; also recorded: completely restored the anti-allodynic effect | recovery of basal mechanical withdrawal thresholds, ET protocol ([2]; 20 mg/kg daily x5, started immediately after CFA): reaching basal levels seven days after treatment initiation; also recorded: reaching basal thresholds seven days after injury and onwards | recovery of basal mechanical withdrawal thresholds, LT protocol ([2]; 20 mg/kg daily x5, started seven days after CFA): fully achieved seven days after initiation of the treatment; also recorded: recovery of basal mechanical withdrawal thresholds starting one week after treatment (two weeks after injury) | withdrawal thresholds of contralateral hind paws ([2]; IMT504-treated CFA rats, data not shown): remained normal; also recorded: normal basal values | start of progressive recovery towards basal mechanical withdrawal thresholds ([2]; LT protocols (0.2 or 2 mg/kg, three or five daily doses from day 7 after CFA), s.c.): 10 day after injury | recovery of mechanical withdrawal threshold ([2]; LT, 0.2 mg/kg daily x5, s.c., 0.2 mg/kg): slower, incomplete recovery, never reaching basal withdrawal thresholds; also recorded: not reaching the basal level | difference to vehicle-treated CFA rats towards the end of the assay ([2]; LT, 0.2 mg/kg daily x5, p>0.05): no significant differences with the vehicle-treated CFA rats | reaching basal ipsilateral withdrawal thresholds, counted from initiation of treatment ([2]; LT, three or five daily doses of 2 mg/kg, s.c.): reaching basal ipsilateral withdrawal thresholds at day five after initiation of the treatment and onwards | persistence of basal withdrawal thresholds ([2]; LT, three or five daily doses of 2 mg/kg, s.c., 2 mg/kg): maintained basal withdrawal thresholds throughout the whole assay period; also recorded: maintaining such a condition throughout the entire assay (seven weeks) | time at which mechanical withdrawal thresholds reach allodynic levels ([2]; preventive IMT504 (20 mg/kg x5 + 6 mg/kg, or 6 mg/kg only) three days before CFA, both groups): 14 days after injury | mechanical allodynia twenty-one days after injury ([2]; preventive IMT504, both groups, comparable to untreated CFA-rats): all animals reached basal allodynic levels | lack / prevention of mechanical allodynia after CFA-induced inflammation ([2]; preventive IMT504: 20 mg/kg daily x5 plus 6 mg/kg four weeks later, or 6 mg/kg only, CFA three days after the 6 mg/kg dose, both groups): prevention of mechanical allodynia; also recorded: lack of mechanical allodynia during the first three days | time from which basal withdrawal thresholds are recovered ([2]; single dose of 2 mg/kg, one week after CFA): 21 days after injury | recovery of basal withdrawal thresholds ([2]; single dose of 2 mg/kg, one week after CFA, 2 mg/kg): slower, but finally complete, recovery of basal withdrawal thresholds; also recorded: slower, incomplete recovery, never reaching basal withdrawal thresholds
